13 molecules from PubChem BioAssay (NCI) can be followed below.

Some test systems named below: DU-145 prostate; MALME-3M melanoma; NCI-H226 lung; T-47D breast; NCI-H522 lung; HCT-116 colon; NCI/ADR-RES ovarian; MDA-N; HS 578T breast; MDA-MB-231 breast.
Common to all, as to assay: growth of human tumour cells (NCI), 48 h

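Compound exposure: 48 hours, 5 concentrations, 96-well plates. At the GI50, growth is halved. TGI: total growth inhibition.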 Where only a bound is given, the exact number is not on record here.

For the molecule `COc1cc(C2CC(c3cccc(Nc4ccncc4)c3)=NN2c2ccc(Cl)cc2)cc(OC)c1OC` (stereo not given), the GI50 was 1.78 µM in the assay with DU-145 prostate, 1.66 µM with MALME-3M melanoma, 1.66 µM in the assay on NCI-H226 lung and 1.79 µM in the assay on T-47D breast. In addition, the TGI in the assay on DU-145 prostate was determined as 3.17 µM; in the assay on MALME-3M melanoma, 3.11 µM; in the assay on NCI-H226 lung, 3.59 µM; in the assay with T-47D breast it was 4.23 µM.

As for `COc1ccc(/C(Cl)=C(\C=O)c2ccc(OC)cc2)cc1`, the TGI in the assay with MALME-3M melanoma, in the assay with NCI-H522 lung, in the assay on HCT-116 colon and in the assay on NCI-H226 lung was more than 100 µM in each case.

Take `Nc1ccccc1N=Cc1cc2cc([N+](=O)[O-])ccc2s1`: the TGI with NCI/ADR-RES ovarian is more than 100 µM; with DU-145 prostate, 36.1 µM; in the assay with MDA-N, more than 100 µM; in the assay on HS 578T breast, 41.8 µM; in the assay with MALME-3M melanoma it was 81.7 µM; with MDA-MB-231 breast, 39.2 µM. Moreover, the TGI in the assay on NCI-H522 lung is more than 100 µM; in the assay with HCT-116 colon, more than 100 µM; in the assay with T-47D breast, 20.8 µM.

As for `COc1cc(/C=C/C(=O)Oc2ccc(NC(C)=O)cc2)ccc1C(=O)O/C=C/c1ccccc1`, the TGI in the assay with NCI/ADR-RES ovarian, with MALME-3M melanoma, with NCI-H522 lung, with HCT-116 colon and with NCI-H226 lung was more than 100 µM each time.

`COc1ccc(-c2nc3ncccn3c2-c2ccc(SC)cc2)cc1`: the TGI was 5.24 µM in the assay with NCI/ADR-RES ovarian; 7.7 µM with HS 578T breast; more than 100 µM with MDA-MB-231 breast; 0.502 µM in the assay with NCI-H522 lung; 5.15 µM with HCT-116 colon.

For the molecule `CSc1ccsc1-c1sc(-c2cc(SC)c(-c3sc(-c4cc(SC)c(-c5sccc5SC)s4)cc3SC)s2)cc1SC`, the TGI in the assay with NCI/ADR-RES ovarian is more than 100 µM; in the assay on DU-145 prostate it was more than 100 µM; in the assay with HS 578T breast, more than 100 µM; with MALME-3M melanoma, 81.7 µM; with MDA-MB-231 breast it was more than 100 µM; with NCI-H522 lung, more than 100 µM. Also, the results for the TGI in the assay with HCT-116 colon and with T-47D breast were more than 100 µM and 82.8 µM, respectively.

For the molecule `CCc1nc(N)nc(N)c1-c1ccc([N+](C)(C)C)cc1`, the TGI in the assay on NCI/ADR-RES ovarian, in the assay on DU-145 prostate, with MDA-N, in the assay on HS 578T breast, with MDA-MB-231 breast and with NCI-H522 lung was more than 100 µM throughout. Besides, the TGI in the assay with HCT-116 colon, in the assay with NCI-H226 lung and with T-47D breast was more than 100 µM in each case.

Turning to `COc1ccc2c(C(=O)c3cn(CCN4CCOCC4)c4ccccc34)cccc2c1`, the TGI in the assay on NCI/ADR-RES ovarian is more than 100 µM; in the assay with DU-145 prostate it was more than 100 µM; with MDA-N it was more than 100 µM; in the assay on HS 578T breast it was more than 100 µM; in the assay with MALME-3M melanoma, more than 75.7 µM; with MDA-MB-231 breast, more than 100 µM. Also, the TGI with NCI-H522 lung, with HCT-116 colon, in the assay with NCI-H226 lung and in the assay on T-47D breast was more than 100 µM in each case.

For the molecule `CCOC(=O)c1c2c(n(Cc3ccccc3)c1C)C(=O)C(=O)c1ccccc1-2`, the TGI is more than 100 µM with NCI/ADR-RES ovarian; 0.972 µM with DU-145 prostate; 2.19 µM in the assay with HS 578T breast; 0.191 µM in the assay with MALME-3M melanoma; 1.99 µM in the assay on MDA-MB-231 breast; 0.692 µM with HCT-116 colon. In addition, the TGI with NCI-H226 lung amounted to 1.22 µM; in the assay with T-47D breast, 2.19 µM.

In the case of `CCSC1=N/C(=C\c2ccc(N(C)C)cc2)C(Cl)=N1`, the TGI in the assay with NCI/ADR-RES ovarian, in the assay with DU-145 prostate, in the assay on MDA-N, with HS 578T breast, in the assay on MALME-3M melanoma and in the assay on MDA-MB-231 breast was more than 100 µM each time. Besides, the TGI with NCI-H522 lung, in the assay on HCT-116 colon, in the assay with NCI-H226 lung and in the assay with T-47D breast was more than 100 µM in each case.

Turning to `FC(F)(F)c1ccc2c(c1)nc(-c1ccc(Cl)cc1)n2CC1CCCN2CCCCC12` (stereo not given), the TGI worked out at 29.2 µM in the assay on NCI/ADR-RES ovarian; 30.4 µM in the assay on DU-145 prostate; 29.9 µM with MDA-N; 36.3 µM in the assay with HS 578T breast; 29.8 µM in the assay on MALME-3M melanoma; 20.3 µM with MDA-MB-231 breast. Moreover, the TGI in the assay on NCI-H522 lung was 26.5 µM; in the assay on HCT-116 colon it was 27.4 µM; in the assay on NCI-H226 lung, 31.4 µM; in the assay on T-47D breast, 39.8 µM.

Turning to `CCC(=O)O[C@H]1CC[C@H]2[C@@H]3CCC4=C/C(=N/OC(=O)c5cccc6cc7ccccc7nc56)CC[C@]4(C)[C@H]3CC[C@]12C`, the TGI with NCI/ADR-RES ovarian, in the assay with DU-145 prostate, with MDA-N, with HS 578T breast, with MALME-3M melanoma and in the assay with MDA-MB-231 breast was more than 100 µM throughout. The TGI is more than 100 µM in the assay with NCI-H522 lung, more than 100 µM in the assay with HCT-116 colon, more than 100 µM in the assay with NCI-H226 lung and 67.6 µM with T-47D breast.

As to `N=C1C(=N)c2ccccc2-c2ccccc21.N=C1C(=N)c2ccccc2-c2ccccc21.N=C1C(=N)c2ccccc2-c2ccccc21.[Cl-].[Ru+2]`, in the assay on MALME-3M melanoma, the GI50 is 1.79 µM. Further, the TGI in the assay with MALME-3M melanoma stood at 3.29 µM; with NCI-H522 lung, 2.84 µM; in the assay with HCT-116 colon, 3.2 µM.
